Reference: patent US20090233299A1, “Physiogenomic Method for Predicting Statin Injury to Muscle and Muscle Side Effects” (GENOMAS, INC., priority 2005, published 2009)

Legend:
[1] = deaths associated with the drug before its withdrawal in August 2001; cited from earlier work
[2] = human, in vivo

COCc1c(C(C)C)nc(C(C)C)c(/C=C/[C@@H](O)C[C@@H](O)CC(=O)O)c1-c1ccc(F)cc1 [cerivastatin]
rhabdomyolysis-related deaths [1]: approx. 100

CCC(C)(C)C(=O)O[C@H]1C[C@@H](C)C=C2C=C[C@H](C)[C@H](CC[C@@H]3C[C@@H](O)CC(=O)O3)[C@H]21 [simvastatin]
Median CK [2]: 77 u/l

CC(C)c1c(C(=O)Nc2ccccc2)c(-c2ccccc2)c(-c2ccc(F)cc2)n1CC[C@@H](O)C[C@@H](O)CC(=O)O [atorvastatin]
Median CK [2]: 84 u/l
